Data published in patent US20050074426A1, “Fusions of cytokines and tumor targeting proteins” (priority 2002, published 2005).
Where two headings read alike, the source gives them in different places.

How the values were obtained:
[1] = cited from earlier work
[2] = system: L-M mouse fibroblasts (ATCC CCL1.2)
p55TNFR = biological target: T1, p55TNFR (Homo sapiens, UniProt P19438); settings: cited from earlier work
T1 sequence (P19438 30-455): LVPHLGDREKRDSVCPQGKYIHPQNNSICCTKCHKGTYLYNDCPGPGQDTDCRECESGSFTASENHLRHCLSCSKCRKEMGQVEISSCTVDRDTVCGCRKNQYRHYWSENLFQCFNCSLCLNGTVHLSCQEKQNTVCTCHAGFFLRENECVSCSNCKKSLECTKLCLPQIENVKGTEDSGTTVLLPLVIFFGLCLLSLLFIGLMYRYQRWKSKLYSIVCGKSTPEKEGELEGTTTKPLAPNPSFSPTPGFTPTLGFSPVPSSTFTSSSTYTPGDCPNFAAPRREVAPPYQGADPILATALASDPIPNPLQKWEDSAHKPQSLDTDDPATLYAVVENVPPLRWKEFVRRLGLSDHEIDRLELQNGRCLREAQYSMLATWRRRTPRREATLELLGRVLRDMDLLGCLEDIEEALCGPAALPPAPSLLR

p75TNFR = biological target: T2, p75TNFR (Homo sapiens, UniProt P20333); settings: cited from earlier work
T2 sequence (P20333 23-461): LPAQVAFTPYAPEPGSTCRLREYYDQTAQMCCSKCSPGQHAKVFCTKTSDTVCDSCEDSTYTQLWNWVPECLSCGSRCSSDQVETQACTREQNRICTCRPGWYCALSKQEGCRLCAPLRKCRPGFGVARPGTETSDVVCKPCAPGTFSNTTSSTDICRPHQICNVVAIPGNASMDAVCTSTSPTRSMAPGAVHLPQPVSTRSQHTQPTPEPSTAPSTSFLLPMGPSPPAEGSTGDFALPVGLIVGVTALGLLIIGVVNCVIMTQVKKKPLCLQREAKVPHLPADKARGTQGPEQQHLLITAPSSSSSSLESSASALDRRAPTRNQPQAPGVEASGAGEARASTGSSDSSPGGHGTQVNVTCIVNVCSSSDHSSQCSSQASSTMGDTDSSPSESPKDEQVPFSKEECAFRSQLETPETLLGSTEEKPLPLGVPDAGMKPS

[3] = lethality in RMA-T tumor bearing mice; format: in vivo, C57BL/6 mice; settings: 3 days after treatment, single dose i.p.
Description: (§1) In vivo studies on animal models were approved by the Ethical Committee of the San Raffaele H Scientific Institute and performed according to the prescribed guidelines. C57BL/6 (Charles River Laboratories, Calco, Italy) (16-18 g) were challenged with 5×10^4 RMA-T or TSA living cells, respectively, s.c. in the left flank. Ten-twelve days after tumor implantation, mice were treated, i.p., with 250 μl TNF or RGD-TNF solutions, diluted with endotoxin-free 0.9% sodium chloride. […] Each experiment was carried out with 5 mice per group. The tumor growth was monitored daily by measuring the tumor size with calipers. The tumor area was estimated by calculating r1×r2 π, whereas tumor volume was estimated by calculating r1×r2×r3×4/3 π, where r1 and r2 are the longitudinal and lateral radii, and r3 is the thickness of tumors protruding from the surface of normal skin. Animals were killed before the tumor reached 1.0-1.3 cm diameter. Tumor sizes are shown as mean±SE (5-10 animals per group) and compared by t-test.
Murine TNF administered to animals bearing established s.c. RMA-T tumors, causes 24 h later a reduction in the tumor mass and haemorragic necrosis in the central part of the tumor, followed by a significant growth delay for few days (71). […] In a first set of experiments we investigated the effect of various doses (i.p.) of TNF or RGD-TNF on animal survival. […]

RMA-T lymphoma = test: anti-tumor activity and survival in RMA-T lymphoma bearing mice; format: in vivo, C57BL/6 mice
Description: The Rauscher virus-induced RMA lymphoma of C57BL/6 origin (69) were maintained in vitro in RPMI 1640, 5% fetal bovine serum (FBS), 100 U/ml penicillin, 100 μg/ml streptomycin, 0.25 μg/ml amphotericin B, 2 mM glutamine and 50 μM 2-mercaptoethanol. RMA-T was derived from the RMA cell line by transfection with a construct encoding the Thy 1.1 allele and cultured as described Moro, 1997 #28].
as §1, with “flank.” for “flank. Ten-twelve days after tumor implantation, mice were treated, i.p., with 250 μl TNF or RGD-TNF solutions, diluted with endotoxin-free 0.9% sodium chloride.”
To avoid excessive suffering, the animals were killed when the tumor diameter was greater than 1-1.3 cm.

[4] = dose 1 μg i.v., treated 12 days after tumor implantation
[5] = dose 2 μg i.v., treated 12 days after tumor implantation
[6] = dose 4 μg i.v., treated 12 days after tumor implantation

Q: Which maximum tolerated dose ([1]; bolus, intravenous, humans) does the source give for “TNF: Tumor Necrosis Factor-α; in the examples murine recombinant Met-TNF1-156 produced in E. coli” here?
A: The maximum tolerated dose was 218-410 μg/m^2.

Q: And the maximum tolerated dose ([1]; systemic administration)?
A: Its maximum tolerated dose is 8 to 10 µg/kg.

Q: What about the “in vitro cytotoxic activity” value [2] of the same substance?
A: The value was “(1.2±0.14)×10^8 units/mg”.

Q: And the Kd (p55TNFR)?
A: Its Kd is 0.5 nM.

Q: What about the Kd (p75TNFR) of the same substance?
A: Its Kd is 0.1 nM.

Q: And the “LD50 (lethality)” value [3]?
A: The value was 6 µg.

Q: And the “Survival (%) Day 14” value (RMA-T lymphoma; [4])?
A: Its value is 100%.

Q: What about the “Survival (%) Day 22” value (RMA-T lymphoma; [4]) of the same substance?
A: Its value is 22%.

Q: What about the “Survival (%) Day 32” value (RMA-T lymphoma; [4]) of the same substance?
A: The value was 0%.

Q: And the “Survival (%) Day 14” value (RMA-T lymphoma; [5])?
A: The value was 100%.

Q: What about the “Survival (%) Day 22” value (RMA-T lymphoma; [5]) of the same substance?
A: Its value is 37%.

Q: What about the “Survival (%) Day 32” value (RMA-T lymphoma; [5]) of the same substance?
A: Its value is 0%.

Q: And the “Survival (%) Day 90 (2nd ch.)” value (RMA-T lymphoma; dose 4 μg i.v., re-challenge with 50.000 RMA-T at day 90)?
A: The value was 0%.

Q: And the “Survival (%) Day 14” value (RMA-T lymphoma; [6])?
A: The value was 100%.

Q: And the “Survival (%) Day 22” value (RMA-T lymphoma; [6])?
A: The value was 70%.

Q: And the “Survival (%) Day 32” value (RMA-T lymphoma; [6])?
A: Its value is 30%.

Q: What about the “Survival (%) Day 37” value (RMA-T lymphoma; [6]) of the same substance?
A: The value was 10%.

Q: What about the “Survival (%) Day 14” value (RMA-T lymphoma; dose 8 μg i.v., treated 12 days after tumor implantation) of the same substance?
A: The value was 0%.

Q: And the “Survival (%) Day 14” value (RMA-T lymphoma; dose 16 μg i.v., treated 12 days after tumor implantation)?
A: The value was 0%.

Q: And the animals cured (RMA-T lymphoma; single treatment, RGD-TNF 16 μg, TNF all doses)?
A: The animals cured was “no animals at all were cured”.
